Reference: patent publication US5891882A, “Benzopyranopyrrole and benzopyranopyridine α-1 adenergic compounds” (priority 1997, dated 1999)
Structures can show the parent of a compound that is named as a salt.

Columns and labels:
[1] = molecular target: T1, α-1B adrenoreceptor (rat spleen) (Rattus norvegicus, UniProt P15823); test: Functional antagonism: inhibition of phenylephrine-induced contraction of rat spleen; type: cell-based; details: rat spleen, phenylephrine-induced contraction, Schild plot
T1 construct: from tissue; host or cells: rat spleen
T1 sequence (P15823 1-515): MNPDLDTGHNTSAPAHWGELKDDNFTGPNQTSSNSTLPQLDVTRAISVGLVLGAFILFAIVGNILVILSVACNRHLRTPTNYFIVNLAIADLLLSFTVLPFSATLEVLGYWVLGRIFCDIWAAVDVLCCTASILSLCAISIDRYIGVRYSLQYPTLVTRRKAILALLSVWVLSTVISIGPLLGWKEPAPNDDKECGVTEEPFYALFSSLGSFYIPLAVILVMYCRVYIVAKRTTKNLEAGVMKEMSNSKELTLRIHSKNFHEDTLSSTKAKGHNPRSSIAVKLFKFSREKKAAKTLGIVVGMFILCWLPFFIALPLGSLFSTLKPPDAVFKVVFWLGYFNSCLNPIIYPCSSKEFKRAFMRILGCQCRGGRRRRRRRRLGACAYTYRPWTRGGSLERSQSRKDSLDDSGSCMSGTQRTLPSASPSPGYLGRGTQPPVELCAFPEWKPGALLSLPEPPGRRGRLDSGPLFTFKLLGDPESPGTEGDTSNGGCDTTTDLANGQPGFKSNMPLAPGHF
Source text: (§1) Functional assays indicative of pharmacologically defined α-1 adrenoreceptors were used to further characterize compounds. Inhibition of phenylephrine (PE)-induced contraction of canine prostate smooth muscle can be correlated with α-1A adrenoreceptor activation. […] For each of these models, agonist dose response curves were repeated against increasing concentrations of test agent to derive a Schild plot [log ([…]) against log (molarity of test agent)] to determine the pA2.

[2] = molecular target: T2, α-1 Adrenoceptors (Rat Aorta) (Rattus norvegicus, UniProt P23944); test: Functional antagonism at α-1 adrenoceptors, rat aorta; type: cell-based; details: read-out: In Vitro Characterization (pA2) Rat Aorta (converted)
T2 construct: Rat Aorta; from tissue; host or cells: rat aorta
T2 sequence (P23944 1-561): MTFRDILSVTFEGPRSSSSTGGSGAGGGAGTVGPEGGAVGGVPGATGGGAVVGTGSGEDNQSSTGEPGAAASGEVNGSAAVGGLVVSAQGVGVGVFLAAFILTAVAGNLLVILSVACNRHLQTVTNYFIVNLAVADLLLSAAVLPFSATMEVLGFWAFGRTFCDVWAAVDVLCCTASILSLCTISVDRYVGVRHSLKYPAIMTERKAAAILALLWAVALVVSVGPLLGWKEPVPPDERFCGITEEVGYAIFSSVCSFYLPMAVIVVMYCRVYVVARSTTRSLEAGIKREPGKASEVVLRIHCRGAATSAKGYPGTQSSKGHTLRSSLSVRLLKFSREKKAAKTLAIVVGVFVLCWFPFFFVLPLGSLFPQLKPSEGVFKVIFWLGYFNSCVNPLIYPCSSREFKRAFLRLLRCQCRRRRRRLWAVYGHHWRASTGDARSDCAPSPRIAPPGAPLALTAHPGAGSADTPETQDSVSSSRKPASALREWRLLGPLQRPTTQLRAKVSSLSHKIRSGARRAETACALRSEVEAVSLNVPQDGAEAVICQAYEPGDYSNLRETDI
Source text: as §1

[3] = molecular target: T3, α-1A adrenoreceptor (canine prostate smooth muscle) (Canis lupus, UniProt A0A8I3NK63); test: Functional antagonism: inhibition of phenylephrine-induced contraction of canine prostate strips; type: cell-based; details: Schild plot
T3 construct: antagonism of phenylephrine-induced contraction (pA2, Schild)
T3 sequence (A0A8I3NK63 1-466): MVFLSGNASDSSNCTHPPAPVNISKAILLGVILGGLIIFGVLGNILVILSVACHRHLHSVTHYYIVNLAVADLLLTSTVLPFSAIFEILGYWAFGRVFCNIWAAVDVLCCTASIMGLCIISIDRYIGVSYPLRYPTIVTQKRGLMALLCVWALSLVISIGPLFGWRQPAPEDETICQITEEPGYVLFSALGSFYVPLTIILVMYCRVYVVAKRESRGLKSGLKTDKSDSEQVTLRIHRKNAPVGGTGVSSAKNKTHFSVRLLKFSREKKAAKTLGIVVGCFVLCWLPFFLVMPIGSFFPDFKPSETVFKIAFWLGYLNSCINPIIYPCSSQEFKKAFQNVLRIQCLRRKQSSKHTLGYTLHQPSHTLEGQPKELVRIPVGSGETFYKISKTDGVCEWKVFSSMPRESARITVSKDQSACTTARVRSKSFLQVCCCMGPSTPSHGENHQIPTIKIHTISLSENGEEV
Source text: Canine prostate strips were used in vitro as previously described (Hieble, J. P., Boyce, Caine, M., Fed Proc., 45: 2609-2614 (1986)), to determine antagonist potencies phenylephrine-induced contractions.
as §1
Canine prostate strips were used in vitro as previously described (Hieble, J. P., Boyce, A. J. and Caine, M., Fed. Proc., 45: 2609-2614 (1986)), to determine antagonist potencies against phenylephrine-induced contractions.

α-1 adrenoreceptor = details: cited from earlier work; for dose limiting side effects: BPH treatment; for urinary flow rates and subjective symptom scores: longer term studies, BPH

In Vitro Characterization (pA2) Dog Prostate [3]	Compound	In Vitro Characterization (pA2) Rat Spleen [1]	Kb [2]	further results
–	O=C(NC1CCN(CCc2c[nH]c3ccccc23)CC1)c1ccccc1 [indoramin]	–	–	dose limiting side effects (α-1 adrenoreceptor): hypotension, dizziness, and muscle fatigue; urinary flow rates and subjective symptom scores (α-1 adrenoreceptor): significant improvements in urinary flow rates and subjective symptom scores
–	COc1cc2nc(N3CCN(C(=O)C4COc5ccccc5O4)CC3)nc(N)c2cc1OC (stereo not shown) [Doxazosin, doxazosin]	–	–	dose limiting side effects (α-1 adrenoreceptor): hypotension, dizziness, and muscle fatigue; urinary flow rates and subjective symptom scores (α-1 adrenoreceptor): significant improvements in urinary flow rates and subjective symptom scores; clinical efficacy in BPH (α-1 adrenoreceptor; non-selective α-1 blockers): Clinical efficacy
–	COc1cccc2c1[C@@H]1CN(CCCCn3c(=O)[nH]c4c(sc5ncccc54)c3=O)C[C@H]1CO2 [Example 44, 3-[4-((3aS,9bR)-trans-9-Methoxy-1,2,3,3a,4,9b-hexahydro-[1]-benzopyrano[3,4-c]pyrrol-2-yl)butyl]-pyrido[3',2':4,5]thieno[3,2-d]pyrimidine-2,4(1H,3H)-dione hydrochloride]	8.35	0.0398 nM	–
–	COc1cccc2c1[C@@H]1CN(CCCCn3c(=O)[nH]c4c(sc5ncccc54)c3=O)C[C@@H]1CO2 [Example 34, hydrochloride]	8.12	0.646 nM	–
–	COc1cccc2c1[C@@H]1CN(CCCCn3c(=O)[nH]c4c(sc5nc(Cl)ccc54)c3=O)C[C@H]1CO2 [Example 47, 3-[4-((3aS,9bR)-trans-9-Methoxy-1,2,3,3a,4,9b-hexahydro-[1]-benzopyrano[3,4-c]pyrrol-2-yl)butyl]-7-chloro-pyrido[3',2':4,5]thieno[3,2-d]pyrimidine-2,4(1H,3H)-dione hydrochloride]	7.95	0.204 nM	–
9.91	COc1cccc2c1[C@@H]1CN(CCCCn3c(=O)[nH]c4c(sc5ncc(Cl)nc54)c3=O)C[C@H]1CO2 [Example 13, 3-[4((3aS,9bR)-trans-9-Methoxy-1,2,3,3a,4,9b-hexahydro-[1]-benzopyrano[3,4-c]pyrrol-2-yl)butyl]-8-chloro-pyrazino[2',3':4,5]thieno[3,2-d]pyrimidine-2,4(1H,3H)-dione hydrochloride]	–	0.0407 nM	–
–	COc1cccc2c1[C@@H]1CN(CCCCn3c(=O)[nH]c4c(sc5c(Cl)nccc54)c3=O)C[C@H]1CO2 [Example 54]	7.31	–	–
9.15	COc1ccc2sc3c(=O)n(CCCCN4C[C@H]5COc6cccc(OC)c6[C@@H]5C4)c(=O)[nH]c3c2n1 [Example 26, 3-[4-((3aS,9bR)-trans-9-Methoxy-1,2,3,3a,4,9b-hexahydro-[1]-benzopyrano[3,4-c]pyrrol-2-yl)butyl]-8-methoxy-pyrido[2',3':4,5]thieno[3,2-d]pyrimidine-2,4(1H,3H)-dione dihydrochloride]	–	0.0661 nM	–
–	COc1cc2[nH]c(=O)n(CCCCN3C[C@@H]4COc5ccccc5[C@@H]4C3)c(=O)c2cc1OC.Cl (racemic) [Example 81, 3-[4-((±)-cis-1,2,3,3a,4,9b-hexahydro-[1]-benzopyrano[3,4-c]pyrrol-2-yl)butyl]-6,7-dimethoxy-quinazoline-2,4(1H,3H)-dione hydrochloride]	7.41	–	–
–	COc1ccc2c(n1)sc1c(=O)n(CCCCN3C[C@H]4COc5cccc(OC)c5[C@@H]4C3)c(=O)[nH]c12 [Example 46, 3-[4-((3aS,9bR)-trans-9-Methoxy-1,2,3,3a,4,9b-hexahydro-[1]-benzopyrano[3,4-c]pyrrol-2-yl)butyl]-7-methoxy-pyrido[3',2':4,5]thieno[3,2-d]pyrimidine-2,4(1H,3H)-dione hydrochloride]	8.12	0.155 nM	–
9.03	COc1cccc2c1[C@H]1CN(CCCCn3c(=O)[nH]c4c(sc5nccnc54)c3=O)C[C@@H]1CO2.Cl.Cl (racemic) [Example 74, 3-[4-((±)-trans-9-Methoxy-1,2,3,3a,4,9b-hexahydro-[1]-benzopyrano[3,4-c]pyrrol-2-yl)butyl]-pyrazino[2',3':4,5]thieno[3,2-d]pyrimidine-2,4(1H,3H)-dione dihydrochloride]	–	–	–
6.65	COc1ccc2c(c1)OC[C@H]1CN(CCn3c(=O)[nH]c4c(sc5ccccc54)c3=O)C[C@@H]21.Cl (racemic) [Example 63, 3-[2-((±)-cis-7-Methoxy-1,2,3,3a,4,9b-hexahydro-[1]-benzopyrano[3,4-c]pyrrol-2-yl)ethyl]-[1]benzthieno[3,2-d]pyrimidine-2,4(1H,3H)-dione hydrochloride]	–	–	–
6.91	Cl.O=c1[nH]c2c(sc3ccccc32)c(=O)n1CCN1C[C@@H]2COc3ccccc3[C@@H]2C1 (racemic) [Example 69, 3-[2-((±)-cis-1,2,3,3a,4,9b-hexahydro-[1]-benzopyrano[3,4-c]pyrrol-2-yl)ethyl]-[1]-benzthieno[3,2-d]pyrimidine-2,4(1H,3H)-dione hydrochloride]	–	–	–
7.48	COc1cccc2c1[C@@H]1CN(CCCn3c(=O)[nH]c4c(sc5ccccc54)c3=O)C[C@@H]1CO2.Cl (racemic) [Example 66, 3-[3-((±)-cis-9-Methoxy-1,2,3,3a,4,9b-hexahydro-[1]-benzopyrano[3,4-c]pyrrol-2-yl)propyl]-[1]-benzthieno[3,2-d]pyrimidine-2,4(1H,3H)-dione hydrochloride]	–	–	–

Compound	In Vitro Characterization (pA2) Dog Prostate [3]	In Vitro Characterization (pA2) Rat Spleen [1]	Kb [2]	further results
COc1cccc2c1[C@@H]1CN(CCCCn3c(=O)[nH]c4c(sc5ncc(-c6ccccc6)nc54)c3=O)C[C@H]1CO2 [Example 50, 3-[4-((3aS,9bR)-trans-9-Methoxy-1,2,3,3a,4,9b-hexahydro-[1]-benzopyrano[3,4-c]pyrrol-2-yl)butyl]-8-phenyl-pyrazino[2',3':4,5]thieno[3,2-d]pyrimidine-2,4(1H,3H)-dione hydrochloride]	8.45	6.5	0.389 nM	–
COc1cccc2c1[C@@H]1CN(CCCCn3c(=O)[nH]c4c(sc5ncc(-c6ccccc6)nc54)c3=O)C[C@@H]1CO2 [Example 39, 3-[4-((3aR,9bR)-cis-9-Methoxy-1,2,33a,4,9b-hexahydro-[1]-benzopyrano[3,4-c]pyrrol-2-yl)butyl]-8-phenyl-pyrazino[2',3':4,5]thieno[3,2-d]pyrimidine-2,4(1H,3H)-dione hydrochloride]	8.52	6.83	12.9 nM	–
COc1cccc2c1OC[C@H]1CN(CCn3c(=O)[nH]c4c(sc5ccccc54)c3=O)C[C@@H]21.Cl (racemic) [Example 67, 3-[2-((±)-cis-6-Methoxy-1,2,3,3a,4,9b-hexahydro-[1]-benzopyrano[3,4-c]pyrrol-2-yl)ethyl]-[1]-benzthieno[3,2-d]pyrimidine-2,4(1H,3H)-dione hydrochloride]	7.33	6.83	–	–
